Values quoted from earlier work, collected in patent US20030195171A1 (priority 2002, published 2003).

Assays:
vitamin D receptor = target: T1, vitamin D receptor (Homo sapiens, UniProt P11473); conditions: relative to 1α,25-dihydroxy-cholecalciferol
T1 sequence (P11473 1-427): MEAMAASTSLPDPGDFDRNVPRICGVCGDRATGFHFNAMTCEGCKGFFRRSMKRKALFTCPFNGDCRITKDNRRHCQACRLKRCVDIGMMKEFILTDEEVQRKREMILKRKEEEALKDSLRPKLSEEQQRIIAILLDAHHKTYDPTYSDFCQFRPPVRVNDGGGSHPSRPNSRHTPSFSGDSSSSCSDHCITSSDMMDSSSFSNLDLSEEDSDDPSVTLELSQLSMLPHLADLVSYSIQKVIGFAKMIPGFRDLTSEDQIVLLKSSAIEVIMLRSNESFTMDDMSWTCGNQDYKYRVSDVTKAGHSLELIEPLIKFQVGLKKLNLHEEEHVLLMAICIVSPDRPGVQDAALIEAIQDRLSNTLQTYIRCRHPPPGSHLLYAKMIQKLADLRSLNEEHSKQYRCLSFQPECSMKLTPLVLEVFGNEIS

[1] = compared to placebo

| SMILES | Intrinsic activity, fold lower than that of 1α,25-dihydroxy-cholecalciferol (vitamin D receptor) | Decrease in the risk of vertebral fractures ([1]; administered over a substantial period of time) | Reduction in vertebral fracture rate per 100 patients ([1]; total number of vertebral fractures) |
| --- | --- | --- | --- |
| C=C1CC[C@H](O)C/C1=C/C=C1\CCC[C@]2(C)[C@@H]([C@H](C)CCCC(C)(C)O)CC[C@@H]12 [25-hydroxy-cholecalciferol] | about 100 fold | – | – |
| NCCCC(O)(P(=O)(O)O)P(=O)(O)O [alendronate, 4-Amino-1-hydroxybutylidene-1,1-bisphosphonic acid monosodium trihydrate] | – | at least 40% | at least 50% |
